# Results as given in US20260216133A1, “AEROSOL COMPRISING 5-METHOXY-N,N-DIMETHYLTRYPTAMINE” (GH Research Ireland Limited, priority 2020, published 2026).
# Values joined by “and” are separate entries in the source; they are usually repeats but may differ in a detail not shown here. Equal entries are not always repeated.
# What was measured:
# [1] = Aerosol 5-MeO-DMT mass density (aerosolized dose/aerosol volume); assay type: physicochemical; details: aerosol volume about 3 liters
# Method: The aerosol 5-MeO-DMT mass density can be calculated as follows: Aerosol 5-MeO-DMT mass density =Aerosolized dose/Aerosol volume. For the aerosolized dose data and the aerosol volume of about 3 liters from Example 2, the following aerosol 5-MeO-DMT mass density was determined: […]
# [2] = Degradation products of 5-MeO-DMT aerosol by HPLC after SPE extraction; details: 18 mg capsule, 210° C. aerosolization, Replicate 1, Extract 1; including the additional amount of Impurity 1
# [3] = Aerosol particle formation rate (aerosolized dose/aerosolization time); assay type: physicochemical; details: aerosolization time 15 seconds
# Method: The aerosol particle formation rate can be calculated as follows: Aerosol particle formation rate=Aerosolized dose/Aerosolization time. For the aerosolized dose data and the aerosolization time of 15 seconds from Example 2, the following aerosol particle formation rate was determined: […]
# [4] = Aerosolization of 5-MeO-DMT from dosing capsules (Volcano Medic), aerosolized dose by weighing; details: triplicate capsules; for Aerosolized dose: 210° C., 12 l/min, 15 seconds
# [5] = Particle size distribution of 5-MeO-DMT aerosol, Next Generation Impactor (NGI); assay type: physicochemical
# Method: The particle size distribution of 5-MeO-DMT aerosol particles as generated according to the compositions and methods of the present invention are determined according to United States Pharmacopeia (USP) methods using the Next Generation Impactor (NGI) (United States Pharmacopeia (USP)<601> Apparatus 6) as shown in FIG. 2.
# This device fractionates the bolus aerosol delivered into a discrete series of size ranges on the basis of particle or droplet inertia and provides a measure of the aerodynamic diameter of the aerosol droplets produced. The droplet size range captured by each stage in the NGI can be dependent on the measured airflow used. For the present analysis, experiments are carried out using an airflow of 30 liters/minute (Experiments 1 and 3) and of 15 liters/minute (Experiments 2 and 4).
# Based on a log-normal distribution of particle sizes, the aerodynamic size distribution is characterized by the mass median aerodynamic diameter (MMAD) and geometric standard deviation (GSD). Moreover, the fine particle fraction (FPF) is determined as the weight percentage of droplets having an aerodynamic diameter of less than or equal to 5 μm, relative to the total of droplets on the impactor.
# A first experiment is carried out using a Volcano Medic Vaporization System as described in Example 1 with dosing capsules having a nominal drug load of 6 mg 5-MeO-DMT free base/capsule. The aerosol recovered in the balloon is measured using the NGI operated using a flow rate of 30 liters/min.
# A second experiment is carried also out using a Volcano Medic Vaporization System as described in Example 1 with dosing capsules having a nominal drug load of 6 mg 5-MeO-DMT free base/capsule. The aerosol recovered in the balloon is measured using the NGI operated using a flow rate of 15 liters/min.
# In this experiment, NGI cups were coated with glycerol to prevent possible droplet re-entrainment. In addition, approximately 8 drops of 30% glycerol in water were added to each filter paper located underneath the corresponding NGI Stage Jets.
# [6] = Experiment 1: 6 mg/capsule, NGI 30 liters/min, mean of 3 runs
# [7] = Experiment 1: 6 mg/capsule, NGI 30 liters/min, single runs
# [8] = Experiment 2: 6 mg/capsule, NGI 15 liters/min, Mean (Runs 1-3)
# [9] = Experiment 2: 6 mg/capsule, NGI 15 liters/min, Mean (Runs 2, 3)
# [10] = Experiment 3: 18 mg/capsule, NGI 30 liters/min, mean of 3 runs
# [11] = Experiment 3: 18 mg/capsule, NGI 30 liters/min, single runs
# [12] = Experiment 4: 18 mg/capsule, NGI 15 liters/min, glycerol-coated cups, single runs
# [13] = Experiment 4: 18 mg/capsule, NGI 15 liters/min, mean of 3 runs
smiles,measurement,setting,value
"COc1ccc2[nH]cc(CCN(C)C)c2c1 [5-MeO-DMT, 5-methoxy-N,N-dimethyltryptamine]",Aerosol 5-MeO-DMT mass density,[1]; target dosage 2 mg,0.62 mg/L
same,Aerosol 5-MeO-DMT mass density,[1]; target dosage 18 mg,5.45 mg/L and 5.38 mg/L and 5.43 mg/L
same,total percentage of 5-MeO-DMT degradation products in the aerosol,[2],0.19%
same,Aerosol particle formation rate,[3]; target dosage 2 mg,0.12 mg/s
same,Aerosol particle formation rate,[3]; target dosage 18 mg,1.09 mg/s and 1.08 mg/s
same,"Aerosolized dose, % of loaded dose",[4]; target dosage 2 mg,100.5% and 99.5%
same,Aerosolized dose,[4]; target dosage 2 mg,1.9 mg
same,"Aerosolized dose, % of loaded dose",[4]; target dosage 18 mg,96.3% and 96.5% and 95.9%
same,Aerosolized dose,[4]; target dosage 18 mg,16.3 mg and 16.2 mg
same,FPF,[5]; [6],97.95%
same,GSD,[5]; [6],3.49
same,MMAD,[5]; [6],0.40 μm
same,GSD,[5]; [7],4.70 and 3.05 and 2.71
same,MMAD,[5]; [7],0.33 μm and 0.46 μm and 0.42 μm
same,FPF,"[5]; Experiment 1: 6 mg/capsule, NGI 30 liters/min, single runs, droplets <= 5 μm",96.19% and 98.35% and 99.31%
same,FPF,[5]; [8],94.85%
same,GSD,[5]; [8],4.63
same,MMAD,[5]; [8],0.57 μm
same,FPF,[5]; [9],94.67%
same,GSD,[5]; [9],3.20
same,MMAD,[5]; [9],0.77 μm
same,FPF,"[5]; Experiment 2: 6 mg/capsule, NGI 15 liters/min, glycerol-coated cups, single runs, Run 1 may not be reliable",95.22% and 93.54% and 95.79%
same,FPF,[5]; [10],94.64%
same,GSD,[5]; [10],2.65
same,MMAD,[5]; [10],1.05 μm
same,FPF,[5]; [11],93.13% and 94.08% and 96.72%
same,GSD,[5]; [11],2.98 and 2.52 and 2.44
same,MMAD,[5]; [11],0.98 μm and 1.19 μm and 0.97 μm
same,FPF,[5]; [12],93.23% and 92.66% and 91.40%
same,GSD,[5]; [12],2.66 and 2.77 and 2.10
same,MMAD,[5]; [12],1.16 μm and 1.14 μm and 1.82 μm
same,FPF,[5]; [13],92.43%
same,GSD,[5]; [13],2.51
same,MMAD,[5]; [13],1.37 μm
